Laboratory results published in patent US20250230193A1, “CYCLIC COMPOUND HAVING SELECTIVE KRAS INHIBITORY EFFECT ON HRAS AND NRAS” (CHUGAI SEIYAKU KABUSHIKI KAISHA, priority 2022, published 2025).

How the values were obtained:
[1] = target: GDP-bound HRAS wild-type protein (Homo sapiens, UniProt P01112); test: Binding to HRAS by surface plasmon resonance (SPR), Single Cycle Kinetics; details: KD ratio HRAS/KRAS, SPR
[2] = target: GDP-bound NRAS wild-type protein (Homo sapiens, UniProt P01111); test: Binding to NRAS by surface plasmon resonance (SPR), Single Cycle Kinetics; details: KD ratio NRAS/KRAS, SPR
GDP-bound NRAS wild-type protein, sequence (P01111 whole entry): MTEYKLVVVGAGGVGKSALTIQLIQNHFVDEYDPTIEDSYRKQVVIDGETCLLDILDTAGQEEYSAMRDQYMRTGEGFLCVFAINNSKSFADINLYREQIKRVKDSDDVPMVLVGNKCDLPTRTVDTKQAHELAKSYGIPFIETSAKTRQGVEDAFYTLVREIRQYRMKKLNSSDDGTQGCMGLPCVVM

GDP-bound HRAS wild-type protein, sequence (P01112 whole entry): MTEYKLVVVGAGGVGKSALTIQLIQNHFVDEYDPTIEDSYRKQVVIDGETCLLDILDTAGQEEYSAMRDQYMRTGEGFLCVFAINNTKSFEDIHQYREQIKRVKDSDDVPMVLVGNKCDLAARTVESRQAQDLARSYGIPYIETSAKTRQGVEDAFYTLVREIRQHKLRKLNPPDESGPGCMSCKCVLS

Row | Compound | HRAS/KRAS (ratio of KD value with respect to GDP-bound HRAS wild-type protein to KD value with respect to KRAS) [1] | NRAS/KRAS (ratio of KD value with respect to GDP-bound NRAS wild-type protein to KD value with respect to KRAS) [2]
1 | CC[C@H](C)[C@@H]1NC(=O)[C@H](CC(C)C)N(C)C(=O)C[C@@H](C(=O)N2CCOCC2)N(C)C(=O)[C@H](C2CCCC2)N(C)C(=O)C2(CC(F)(F)C2)NC(=O)[C@@H]2CCCN2C(=O)[C@H](CCc2cc(F)c(C(F)(F)F)c(F)c2)NC(=O)CN(C)C(=O)[C@H](Cc2ccc(C(F)(F)F)cc2)N2CCCCC[C@@H](C2=O)N(C)C(=O)CN(C)C1=O [PP0499] | B (a compound having 3 or more and less than 10 is denoted as B) | B (a compound having 3 or more and less than 10 is denoted as B)
2 | CC[C@H](C)[C@@H]1NC(=O)[C@H](CC(C)C)N(C)C(=O)C[C@@H](C(=O)N2CCOCC2)N(C)C(=O)[C@H](C2CCCC2)N(C)C(=O)[C@](C)(CC)NC(=O)[C@@H]2CCCN2C(=O)[C@H](CCc2cc(F)c(C(F)(F)F)c(F)c2)NC(=O)CN(C)C(=O)[C@H](Cc2ccc(C(F)(F)F)cc2)N2CCCCC[C@@H](C2=O)N(C)C(=O)CN(C)C1=O [PP0500] | B (a compound having 3 or more and less than 10 is denoted as B) | B (a compound having 3 or more and less than 10 is denoted as B)
3 | CC[C@H](C)[C@@H]1NC(=O)[C@H](CC(C)C)N(C)C(=O)C[C@@H](C(=O)N2CCOCC2)N(C)C(=O)[C@H](C2CCCC2)N(C)C(=O)C2(COC2)NC(=O)[C@@H]2CCCN2C(=O)[C@H](CCc2cc(F)c(C(F)(F)F)c(F)c2)NC(=O)CN(C)C(=O)[C@H](Cc2ccc(C(F)(F)F)cc2)N2CCCCC[C@@H](C2=O)N(C)C(=O)CN(C)C1=O [PP0501] | B (a compound having 3 or more and less than 10 is denoted as B) | B (a compound having 3 or more and less than 10 is denoted as B)
4 | CC[C@H](C)[C@@H]1NC(=O)[C@H](CC(C)C)N(C)C(=O)C[C@@H](C(=O)N2CCOCC2)N(C)C(=O)[C@H](C2CCCC2)N(C)C(=O)C2(CCOCC2)NC(=O)[C@@H]2CCCN2C(=O)[C@H](CCc2cc(F)c(C(F)(F)F)c(F)c2)NC(=O)CN(C)C(=O)[C@H](Cc2ccc(C(F)(F)F)cc2)N2CCCCC[C@@H](C2=O)N(C)C(=O)CN(C)C1=O [PP0502] | B (a compound having 3 or more and less than 10 is denoted as B) | A (a compound having 10 or more and less than 20 is denoted as A)
5 | CC[C@H](C)[C@@H]1NC(=O)[C@H](CC(C)C)N(C)C(=O)C[C@@H](C(=O)N2CCOCC2)N(C)C(=O)[C@H](C2CCCC2)N(C)C(=O)C(C)(C)NC(=O)[C@@H]2CCCN2C(=O)[C@H](CCc2cc(F)c(C(F)(F)F)c(F)c2)NC(=O)CN(C)C(=O)[C@H](Cc2ccc(C(F)(F)F)cc2)N2CCCCC[C@@H](C2=O)N(C)C(=O)CN(C)C1=O [PP0503] | B (a compound having 3 or more and less than 10 is denoted as B) | A (a compound having 10 or more and less than 20 is denoted as A)
6 | CC[C@H](C)[C@@H]1NC(=O)[C@H](CC(C)C)N(C)C(=O)C[C@@H](C(=O)N2CCOCC2)N(C)C(=O)[C@H](C2CCC2)N(C)C(=O)C2(CCCC2)NC(=O)[C@@H]2CCCN2C(=O)[C@H](CCc2cc(F)c(C(F)(F)F)c(F)c2)NC(=O)CN(C)C(=O)[C@H](Cc2ccc(C(F)(F)F)cc2)N2CCCCC[C@@H](C2=O)N(C)C(=O)CN(C)C1=O [PP0504] | B (a compound having 3 or more and less than 10 is denoted as B) | B (a compound having 3 or more and less than 10 is denoted as B)
7 | CC[C@H](C)[C@@H]1NC(=O)[C@H](CC(C)C)N(C)C(=O)C[C@@H](C(=O)N2CCOCC2)N(C)C(=O)[C@H](C2CCCCC2)N(C)C(=O)C2(CCCC2)NC(=O)[C@@H]2CCCN2C(=O)[C@H](CCc2cc(F)c(C(F)(F)F)c(F)c2)NC(=O)CN(C)C(=O)[C@H](Cc2ccc(C(F)(F)F)cc2)N2CCCCC[C@@H](C2=O)N(C)C(=O)CN(C)C1=O [PP0505] | B (a compound having 3 or more and less than 10 is denoted as B) | B (a compound having 3 or more and less than 10 is denoted as B)
8 | CC[C@H](C)[C@@H]1NC(=O)[C@H](CC(C)C)N(C)C(=O)C[C@@H](C(=O)N2CCOCC2)N(C)C(=O)[C@H](CC(F)(F)F)N(C)C(=O)C2(CCCC2)NC(=O)[C@@H]2CCCN2C(=O)[C@H](CCc2cc(F)c(C(F)(F)F)c(F)c2)NC(=O)CN(C)C(=O)[C@H](Cc2ccc(C(F)(F)F)cc2)N2CCCCC[C@@H](C2=O)N(C)C(=O)CN(C)C1=O [PP0506] | B (a compound having 3 or more and less than 10 is denoted as B) | B (a compound having 3 or more and less than 10 is denoted as B)
9 | CC[C@H](C)[C@@H]1NC(=O)[C@H](CC(C)C)N(C)C(=O)C[C@@H](C(=O)N(C)C)N(C)C(=O)[C@H](C2CCCC2)N(C)C(=O)C2(CCCC2)NC(=O)[C@@H]2CCCN2C(=O)[C@H](CCc2cc(F)c(C(F)(F)F)c(F)c2)NC(=O)CN(C)C(=O)[C@H](Cc2ccc(C(F)(F)F)cc2)N2CCCCC[C@@H](C2=O)N(C)C(=O)CN(C)C1=O [PP0507] | B (a compound having 3 or more and less than 10 is denoted as B) | B (a compound having 3 or more and less than 10 is denoted as B)
10 | CC[C@H](C)[C@@H]1NC(=O)[C@H](CC(C)C)N(C)C(=O)C[C@@H](C(=O)N2CCCC2)N(C)C(=O)[C@H](C2CCCC2)N(C)C(=O)C2(CCCC2)NC(=O)[C@@H]2CCCN2C(=O)[C@H](CCc2cc(F)c(C(F)(F)F)c(F)c2)NC(=O)CN(C)C(=O)[C@H](Cc2ccc(C(F)(F)F)cc2)N2CCCCC[C@@H](C2=O)N(C)C(=O)CN(C)C1=O [PP0509] | B (a compound having 3 or more and less than 10 is denoted as B) | B (a compound having 3 or more and less than 10 is denoted as B)
11 | CC[C@H](C)[C@@H]1NC(=O)[C@H](CC(C)C)N(C)C(=O)C[C@@H](C(=O)N2CCCCC2)N(C)C(=O)[C@H](C2CCCC2)N(C)C(=O)C2(CCCC2)NC(=O)[C@@H]2CCCN2C(=O)[C@H](CCc2cc(F)c(C(F)(F)F)c(F)c2)NC(=O)CN(C)C(=O)[C@H](Cc2ccc(C(F)(F)F)cc2)N2CCCCC[C@@H](C2=O)N(C)C(=O)CN(C)C1=O [PP0510] | B (a compound having 3 or more and less than 10 is denoted as B) | B (a compound having 3 or more and less than 10 is denoted as B)
12 | CC[C@H](C)[C@@H]1NC(=O)[C@H](CC(C)C)N(C)C(=O)C[C@@H](C(=O)N2C3CCC2COC3)N(C)C(=O)[C@H](C2CCCC2)N(C)C(=O)C2(CCCC2)NC(=O)[C@@H]2CCCN2C(=O)[C@H](CCc2cc(F)c(C(F)(F)F)c(F)c2)NC(=O)CN(C)C(=O)[C@H](Cc2ccc(C(F)(F)F)cc2)N2CCCCC[C@@H](C2=O)N(C)C(=O)CN(C)C1=O [PP0511] | B (a compound having 3 or more and less than 10 is denoted as B) | A (a compound having 10 or more and less than 20 is denoted as A)
13 | CC[C@H](C)[C@@H]1NC(=O)[C@H](CC(C)C)N(C)C(=O)C[C@@H](C(=O)N(C)C)N(C)C(=O)[C@H](C2CCCC2)N(C)C(=O)C2(CCC2)NC(=O)[C@@H]2CCCN2C(=O)[C@H](CCc2cc(F)c(C(F)(F)F)c(F)c2)NC(=O)CN(C)C(=O)[C@H](Cc2ccc(C(F)(F)F)cc2)N2CCCCC[C@@H](C2=O)N(C)C(=O)CN(C)C1=O [PP0512] | B (a compound having 3 or more and less than 10 is denoted as B) | B (a compound having 3 or more and less than 10 is denoted as B)
14 | CC[C@H](C)[C@@H]1NC(=O)[C@H](CC(C)C)N(CC)C(=O)C[C@@H](C(=O)N2CCOCC2)N(C)C(=O)[C@H](C2CCCC2)N(C)C(=O)C2(CCCC2)NC(=O)[C@@H]2CCCN2C(=O)[C@H](CCc2cc(F)c(C(F)(F)F)c(F)c2)NC(=O)CN(C)C(=O)[C@H](Cc2ccc(C(F)(F)F)cc2)N2CCCCC[C@@H](C2=O)N(C)C(=O)CN(C)C1=O [PP0513] | B (a compound having 3 or more and less than 10 is denoted as B) | B (a compound having 3 or more and less than 10 is denoted as B)
15 | CC[C@H](C)[C@@H]1NC(=O)[C@H](CC(C)C)N(C)C(=O)C[C@@H](C(=O)N(C)C)N(C)C(=O)[C@H](C2CCCC2)N(C)C(=O)C2(CCCC2)NC(=O)[C@@H]2CCCN2C(=O)[C@H](CCc2cc(F)c(C(F)(F)F)c(F)c2)NC(=O)CN(C)C(=O)[C@H](Cc2ccc(C(F)(F)F)cc2)N2CCCCC[C@@H](C2=O)N(C)C(=O)CN(CC)C1=O [PP0514] | B (a compound having 3 or more and less than 10 is denoted as B) | B (a compound having 3 or more and less than 10 is denoted as B)
16 | CC[C@H](C)[C@@H]1NC(=O)[C@H](CC(C)C)N(C)C(=O)C[C@@H](C(=O)N2CCOCC2)N(C)C(=O)[C@H](C2CCCC2)N(C)C(=O)C2(CCCC2)NC(=O)[C@H](C)N(CC)C(=O)[C@H](CCc2cc(F)c(C(F)(F)F)c(F)c2)NC(=O)CN(C)C(=O)[C@H](Cc2ccc(C(F)(F)F)cc2)N2CCCCC[C@@H](C2=O)N(C)C(=O)CN(C)C1=O [PP0515] | B (a compound having 3 or more and less than 10 is denoted as B) | B (a compound having 3 or more and less than 10 is denoted as B)
